Assay results taken from patent US9211350B2, “Compound with amyloid affinity” (priority 2011, dated 2015).

Columns and labels:
[1] = Measurement of transferability into brain and clearance (radioactive accumulation in brain); conditions: rats; for Radioactive accumulation per unit weight (% ID/g) in brain, After 2 min. / Radioactive accumulation per unit weight (% ID/g) in brain, After 60 min.: intravenous injection (tail vein); for Radioactive accumulation per unit weight (% ID/g) in brain, After 2 min.: 2 minutes after the injection; for Radioactive accumulation per unit weight (% ID/g) in brain, After 60 min.: 60 minutes after the injection; for Transferability to brain and clearance from brain (in words): intravenous injection, 2 and 60 minutes
Experimental: Using Compound 1, Compound 2, Compound 3, Compound 4 and Compound 5, radioactive accumulation in brain of male Wistar rats (8-week old) was measured.
A solution in which Compound 1, Compound 2, Compound 4 and Compound 5 were respectively dissolved in a physiological saline solution containing 50 mmol/L of L-cysteine hydrochloride was prepared, to obtain a sample solution (radioactive concentration: all 37 MBq/mL). A solution in which Compound 3 was dissolved in a physiological saline solution containing 10% ethanol and 50 mmol/L of L-cysteine hydrochloride was prepared, to obtain a sample solution (radioactive concentration: 37 MBq/mL). The sample solution was injected under non-anesthesia into the tail vein of male Wistar rats (8-week old) (dosage: 0.2 mL, dosed radioactivity: 7.4 MBq equivalent). The rats were sacrificed by decapitating under non-anesthesia to sample bloods and brains 2 and 60 minutes after the injection. Brains were subjected to measurement of mass of brains and further subjected to measurement of radioactivity (hereinafter referred to as A in this Example) with a single channel analyzer (detector type: SP-20 manufactured by OHYO KOKEN KOGYO Co., Ltd.). Further, the radioactivity level of the rest of the whole body including blood was measured in the same manner as above (hereinafter referred to as B in this Example). Using these measurement results, the amount of radioactive accumulation per unit weight of brain (% ID/g) at the respective time points after the dissection were calculated in accordance with the following formula (2).
The same procedure as the above was carried out to calculate the amount of radioactive accumulation per unit weight of brain (% ID/g) at the respective time points after the dissection.
Meanwhile, in this Example, three animals were used for the experiment at the respective time points.

amyloid aggregates = test: In vitro binding test with gray matter and white matter homogenate of brain of AD patients; design: species or system human; conditions: for Radioactive amount attached to brain tissue of AD patients (%), Gray matter: brain gray matter homogenate of AD patients (amyloid deposition); for Radioactive amount attached to brain tissue of AD patients (%), Gray matter / Radioactive amount attached to brain tissue of AD patients (%), White matter: 100 μg protein/mL, 3 hours, 22° C., relative to added radioactivity; for Radioactive amount attached to brain tissue of AD patients (%), White matter: brain white matter homogenate of AD patients (no amyloid); for Binding property to amyloid deposited in the brain (in words): gray matter versus white matter homogenate of AD patients
Experimental: Binding properties to amyloid aggregates of Compound 1, Compound 3, Compound 4, Compound 5 and [^123I]-IMPY were evaluated by the following in vitro binding test.
The assay was conducted using a gray matter homogenate of brain of AD patients and a white matter homogenate of brain of AD patients, which were prepared from a brain tissue (Frontal lobe) of AD patients commercially available from Analytical Biological Services Inc. (United States).
To each well of a 96-well microplate, 150 μL of a 0.1% BSA-containing 5 mmol/L phosphate buffer saline solution and 50 μL of a sample solution prepared above were added. Two wells were afforded to each sample solution. Of the two wells in which each sample solution was added, one received 50 μL of the brain grey matter homogenate of AD patients, and the other received 50 μL of the brain white matter homogenate of AD patients (final concentration: 100 μg protein/mL), so that the reaction was initiated. After the reaction solution was shaken for 3 hours (22° C., 400 rpm), a glass fiber filter (Multiscreen HTS FB, manufactured by Millipore) was used to filter the reaction solution. The filtrated filter was washed with a 0.1% BSA-containing 5 mmol/L phosphate buffer saline solution (200 μL, 3 times), and then radioactivity remained in the filter was measured with an Autowell Gammma system (type: ARC-7001, manufactured by Aloka). The ratio (%) of the radioactivity attached to the brain grey matter homogenate of AD patients or the brain white matter homogenate of AD patients relative to the added-radioactivity was calculated from the resulting count. Meanwhile, the above was repeated 3 times.

[2] = system: amyloid in brain of AD patients; test: Autoradiography of brain slice of AD patients; assay type: binding, human; conditions: 5 μm brain slice of AD patients, 10 kBq/mL, compared with immunostaining by anti-amyloid antibody
Experimental: The following experiment was carried out in order to examine whether the compound of the present invention can image amyloid in brain of AD patients.
• (1) A 5 μm thick brain slice of AD patients was prepared from a brain tissue of AD patients available from Analytical Biological Services Inc. (United States). • (2) The brain slice prepared for each test substance was immersed in PBS 3 times in total: 15 minutes, 5 minutes and 5 minutes in this order. Next, it was immersed in a 1% BSA-containing PBS for 30 minutes to conduct hydrophilization. As the test substance, a 1% BSA-containing PBS containing each of Compound 1, Compound 2, Compound 3, Compound 4, Compound 5 and [^123I]-IMPY (radioactive concentration: 10 kBq/mL) was prepared and used. The above hydrophilized brain slice was immersed at room temperature in each of the test substance solutions. Then, it was immersed in a 1% BSA-containing PBS for 5 minutes, next in a PBS for 5 minutes and further in a PBS for 5 minutes to wash the brain slices. The washed brain slice was sufficiently dried, and then exposed to an imaging plate for 16 hours, and then autoradiogram image analysis was carried out by use of a Bio-imaging Analyzer (type: BAS-2500; manufactured by FUJIFILM Corporation) (FIG. 7, FIG. 8, FIG. 9, FIG. 10, FIG. 11, FIG. 12). • (3) Separately, immunostaining at a site of amyloid deposition with an anti-amyloid antibody was carried out using adjacent slices which were subjected to hydrophilization in accordance with the same procedures as the above. Anti-Human Amyloidβ(N) (82E1) Mouse IgG MoAb (Immuno-Biological Laboratories Co., Ltd.) was used as the anti-amyloid antibody, and Anti-Mouse IgG (H+L) Goat IgG Fab′-HRP (Immuno-Biological Laboratories Co., Ltd.) was used as a secondary antibody. The site of amyloid deposition was detected by applying the DAB+(3,3′-diaminobenzidinetetrahydrochloride) substrate kit (Dako) to HRP attached to the secondary antibody (FIG. 13). Results

[3] = Measurement of partition coefficient based on the octanol extraction method; assay type: physicochemical; conditions: 1-octanol/water; average of 200 μL, 400 μL and 800 μL samples
Experimental: Partition coefficients based on the octanol extraction method (hereinafter referred to as log Poctanol) were measured, which are generally known as an indicator of permeability of compounds through the blood-brain barrier (hereinafter referred to as BBB).
Compound 1, Compound 2, Compound 3 and Compound 4 were adjusted to about 1 MBq/mL respectively using a water saturated 1-octanol solution to obtain sample solutions. Each sample solution in an amount of 30 μL was added to three microtubes. The three microtubes to which each sample solution was added were supplemented with both water saturated 1-octanol and 1-octanol saturated water so as to make the volume to be 200 μL, 400 μL or 800 μL, respectively (referred to as 200 μL sample, 400 μL sample and 800 μL sample, respectively). Each microtube was subjected to stirring, and then was shaken for 5 minutes (20 to 25±2° C., 20 rpm/min). Next, the mixture in each microtube was centrifuged (23° C., 3000 g×20 min.) with a centrifuge (type: T2-MC, manufactured by BECKMAN), and then 50 μL each of the octanol layer and the water layer was obtained, and subjected to measurement of radioactivity with an Autowell Gamma system (Type: ARC-7001, manufactured by Aloka). Using the obtained count, log Poctanol was calculated in accordance with the following equation (1). Meanwhile, the value of log Poctanol was an average value of the values which were respectively calculated for the 200 μL sample, the 400 μL sample and the 800 μL sample.

Row | Compound | Radioactive accumulation per unit weight (% ID/g) in brain, After 2 min. [1] [% ID/g] | Radioactive accumulation per unit weight (% ID/g) in brain, After 60 min. [1] [% ID/g] | Transferability to brain and clearance from brain (in words) [1] | Radioactive amount attached to brain tissue of AD patients (%), Gray matter (amyloid aggregates) [%] | Radioactive amount attached to brain tissue of AD patients (%), White matter (amyloid aggregates) [%] | Binding property to amyloid deposited in the brain (in words) (amyloid aggregates) | Binding to the site of amyloid deposition on autoradiogram (in words) [2] | logPoctanol value [3]
1 | [^123I]-6-iodo-2-[2-(1H-1,2,4-triazole-1-yl)pyridine-5-yl]imidazo[1,2-a]pyridine [Compound 4] | 1.287 | 0.056 | excellent transferability to brain and rapid clearance from brain | 1.13 | 0.17 | have a binding property to amyloid deposited in the brain | binding of the compounds to the site of amyloid deposition confirmed by immunostaining was also be confirmed | 2.23
2 | [^123I]-6-iodo-2-[2-(1H-imidazole-1-yl)pyridine-5-yl]imidazo[1,2-a]pyridine [Compound 3] | 1.186 | 0.246 | excellent transferability to brain and rapid clearance from brain | 2.00 | 0.83 | have a binding property to amyloid deposited in the brain | binding of the compounds to the site of amyloid deposition confirmed by immunostaining was also be confirmed | 1.91
3 | [123I]c1ccc2nc(-c3ccc(-n4ccnn4)nc3)cn2c1 [Compound 1, [^123I]-6-iodo-2-[2-(1H-1,2,3-triazole-1-yl)pyridine-5-yl]imidazo[1,2-a]pyridine] | 1.226 | 0.028 | excellent transferability to brain and rapid clearance from brain | 2.59 | 0.48 | have a binding property to amyloid deposited in the brain | binding of the compounds to the site of amyloid deposition confirmed by immunostaining was also be confirmed | 2.10
4 | [^123I]-6-iodo-2-[2-(pyrazole-1-yl)pyridine-5-yl]imidazo[1,2-a]pyridine [Compound 5] | 1.500 | 0.079 | excellent transferability to brain and rapid clearance from brain | 2.41 | 0.77 | have a binding property to amyloid deposited in the brain | binding of the compounds to the site of amyloid deposition confirmed by immunostaining was also be confirmed | 
5 | CN(C)c1ccc(-c2cn3cc(I)ccc3n2)cc1 [[^123I]-IMPY, 6-iodo-2-[4′-(N,N-dimethylamino)phenyl]imidazo[1,2-a]pyridine, reference compound] | 1.644 | 0.085 |  | 1.97 | 0.77 |  | binding of the compounds to the site of amyloid deposition confirmed by immunostaining was also be confirmed | 
6 | [^123I]-6-iodo-2-[2-(2H-1,2,3-triazole-2-yl)pyridine-5-yl]imidazo[1,2-a]pyridine [Compound 2] | 1.160 | 0.027 | excellent transferability to brain and rapid clearance from brain |  |  |  | binding of the compounds to the site of amyloid deposition confirmed by immunostaining was also be confirmed | 2.05
